Assay results taken from publication PMC7736581, “Activation of the IRE1 RNase through remodeling of the kinase front pocket by ATP-competitive ligands” (Nature Communications, 2020).

Assays:
Assay in all cases: biochemical
Design in all cases: Invitrogen kinase panel: Z'Lyte activity (ATP at Km) or LanthaScreen competitive ATP-site binding, percent inhibition
[1] = target: T1, RSK2 (Homo sapiens, UniProt P51812)
T1 construct: gene RPS6KA3

[2] = target: T2, Aurora_A (Homo sapiens, UniProt O14965)
T2 construct: gene AURKA
T2 sequence (O14965 1-403): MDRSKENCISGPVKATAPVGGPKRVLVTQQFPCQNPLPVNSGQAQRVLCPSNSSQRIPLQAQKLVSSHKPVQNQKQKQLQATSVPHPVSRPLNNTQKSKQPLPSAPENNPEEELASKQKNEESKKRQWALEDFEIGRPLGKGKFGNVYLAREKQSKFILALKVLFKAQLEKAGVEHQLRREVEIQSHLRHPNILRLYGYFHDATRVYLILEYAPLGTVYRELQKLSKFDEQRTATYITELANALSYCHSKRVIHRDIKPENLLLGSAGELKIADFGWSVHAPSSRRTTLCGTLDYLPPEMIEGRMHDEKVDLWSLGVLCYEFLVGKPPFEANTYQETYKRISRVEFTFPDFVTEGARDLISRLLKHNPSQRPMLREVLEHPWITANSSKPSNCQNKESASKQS

[3] = target: Lck (Homo sapiens, UniProt P06239)
[4] = target: FGFR1 (Homo sapiens, UniProt P11362)
[5] = target: T3, GSK3_beta (Homo sapiens, UniProt P49841)
T3 construct: gene GSK3B

[6] = target: Src (Homo sapiens, UniProt P12931)
[7] = target: T4, IKK_epsilon (Homo sapiens, UniProt Q14164)
T4 construct: gene IKBKE
T4 sequence (Q14164 1-716): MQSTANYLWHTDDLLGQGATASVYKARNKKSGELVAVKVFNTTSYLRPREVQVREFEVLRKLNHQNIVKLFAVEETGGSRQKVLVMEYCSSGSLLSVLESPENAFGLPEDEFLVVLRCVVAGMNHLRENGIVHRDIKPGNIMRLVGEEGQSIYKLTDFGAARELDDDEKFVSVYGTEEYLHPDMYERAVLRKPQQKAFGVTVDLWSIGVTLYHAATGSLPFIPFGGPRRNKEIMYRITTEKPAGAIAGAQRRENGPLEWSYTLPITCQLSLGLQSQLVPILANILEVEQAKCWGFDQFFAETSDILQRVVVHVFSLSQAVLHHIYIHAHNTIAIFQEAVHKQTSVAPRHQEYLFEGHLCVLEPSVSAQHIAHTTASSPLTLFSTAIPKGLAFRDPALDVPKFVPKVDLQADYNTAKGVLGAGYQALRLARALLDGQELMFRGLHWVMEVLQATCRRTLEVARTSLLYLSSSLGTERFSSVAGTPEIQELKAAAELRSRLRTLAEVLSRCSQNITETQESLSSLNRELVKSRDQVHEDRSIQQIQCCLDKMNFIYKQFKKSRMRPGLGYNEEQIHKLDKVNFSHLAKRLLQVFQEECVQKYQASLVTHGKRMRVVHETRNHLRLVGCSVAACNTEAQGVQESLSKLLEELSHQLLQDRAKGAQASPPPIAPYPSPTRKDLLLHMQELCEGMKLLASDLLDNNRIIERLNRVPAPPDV

[8] = target: T5, CHK2 (Homo sapiens, UniProt O96017)
T5 construct: gene CHEK2

[9] = target: SLK (Homo sapiens, UniProt Q9H2G2)
[10] = target: T6, ITK (Homo sapiens, UniProt Q08881)
T6 sequence (Q08881 1-620): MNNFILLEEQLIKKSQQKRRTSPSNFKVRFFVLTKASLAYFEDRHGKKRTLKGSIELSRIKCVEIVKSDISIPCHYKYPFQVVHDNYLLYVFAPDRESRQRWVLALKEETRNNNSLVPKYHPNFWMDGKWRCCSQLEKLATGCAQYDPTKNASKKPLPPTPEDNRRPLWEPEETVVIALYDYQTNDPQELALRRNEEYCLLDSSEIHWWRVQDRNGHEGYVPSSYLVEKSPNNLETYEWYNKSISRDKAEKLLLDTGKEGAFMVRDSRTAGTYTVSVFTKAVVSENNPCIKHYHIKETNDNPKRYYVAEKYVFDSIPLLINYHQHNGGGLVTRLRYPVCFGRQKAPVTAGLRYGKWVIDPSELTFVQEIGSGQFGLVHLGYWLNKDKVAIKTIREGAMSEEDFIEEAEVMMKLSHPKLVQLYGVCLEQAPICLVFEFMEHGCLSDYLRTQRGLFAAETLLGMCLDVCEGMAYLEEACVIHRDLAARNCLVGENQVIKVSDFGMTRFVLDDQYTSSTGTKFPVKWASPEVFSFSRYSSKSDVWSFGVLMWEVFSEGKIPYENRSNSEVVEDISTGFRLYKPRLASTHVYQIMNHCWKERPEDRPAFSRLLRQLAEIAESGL

[11] = target: ROCK1 (Homo sapiens, UniProt Q13464)
Sequence of ROCK1 (Q13464 whole entry): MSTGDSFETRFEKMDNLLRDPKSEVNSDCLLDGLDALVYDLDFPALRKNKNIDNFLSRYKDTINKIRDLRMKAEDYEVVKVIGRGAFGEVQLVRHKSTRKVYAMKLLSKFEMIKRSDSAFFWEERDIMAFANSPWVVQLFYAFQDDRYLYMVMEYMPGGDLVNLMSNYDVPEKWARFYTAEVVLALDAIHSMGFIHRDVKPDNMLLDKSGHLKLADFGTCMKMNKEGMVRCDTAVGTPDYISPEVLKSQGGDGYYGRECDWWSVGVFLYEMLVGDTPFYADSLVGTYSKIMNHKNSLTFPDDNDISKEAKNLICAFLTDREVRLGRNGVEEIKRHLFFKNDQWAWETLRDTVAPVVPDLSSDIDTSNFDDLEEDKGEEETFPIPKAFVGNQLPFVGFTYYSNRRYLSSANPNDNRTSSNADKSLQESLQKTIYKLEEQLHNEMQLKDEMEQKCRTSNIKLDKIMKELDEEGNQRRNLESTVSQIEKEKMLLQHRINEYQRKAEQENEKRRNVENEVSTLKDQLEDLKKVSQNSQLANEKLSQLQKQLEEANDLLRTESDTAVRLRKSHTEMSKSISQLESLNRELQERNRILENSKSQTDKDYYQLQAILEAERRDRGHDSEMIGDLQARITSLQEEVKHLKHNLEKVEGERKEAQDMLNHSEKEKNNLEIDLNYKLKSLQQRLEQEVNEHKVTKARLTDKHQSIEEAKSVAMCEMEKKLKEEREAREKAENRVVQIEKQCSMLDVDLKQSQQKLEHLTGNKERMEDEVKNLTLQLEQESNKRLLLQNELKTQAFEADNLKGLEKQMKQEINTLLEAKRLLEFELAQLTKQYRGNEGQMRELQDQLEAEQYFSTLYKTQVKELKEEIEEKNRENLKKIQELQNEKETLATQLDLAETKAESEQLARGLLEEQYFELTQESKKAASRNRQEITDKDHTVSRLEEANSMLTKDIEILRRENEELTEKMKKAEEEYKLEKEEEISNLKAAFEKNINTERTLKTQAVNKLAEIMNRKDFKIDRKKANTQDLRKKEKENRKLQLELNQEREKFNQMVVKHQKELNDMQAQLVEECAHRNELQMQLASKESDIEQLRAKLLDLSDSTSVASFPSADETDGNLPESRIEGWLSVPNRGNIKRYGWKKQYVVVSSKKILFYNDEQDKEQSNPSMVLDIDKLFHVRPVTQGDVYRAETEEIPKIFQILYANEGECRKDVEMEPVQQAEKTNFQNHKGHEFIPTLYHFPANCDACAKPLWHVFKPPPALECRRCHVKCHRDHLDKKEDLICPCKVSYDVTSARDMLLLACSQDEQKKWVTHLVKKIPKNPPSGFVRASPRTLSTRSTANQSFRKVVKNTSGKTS

T3 sequence (P49841 whole entry): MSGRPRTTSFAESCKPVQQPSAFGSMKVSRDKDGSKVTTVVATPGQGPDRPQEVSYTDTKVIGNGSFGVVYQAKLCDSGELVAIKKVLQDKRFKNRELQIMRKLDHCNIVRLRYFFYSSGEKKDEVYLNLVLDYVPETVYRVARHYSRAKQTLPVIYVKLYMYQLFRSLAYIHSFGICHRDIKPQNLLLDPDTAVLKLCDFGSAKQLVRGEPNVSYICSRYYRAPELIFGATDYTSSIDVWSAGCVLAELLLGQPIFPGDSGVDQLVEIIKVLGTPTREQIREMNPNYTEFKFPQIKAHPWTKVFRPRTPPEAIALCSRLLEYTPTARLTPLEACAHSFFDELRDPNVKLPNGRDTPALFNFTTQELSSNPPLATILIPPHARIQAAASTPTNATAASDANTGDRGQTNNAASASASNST
Sequence of Src (P12931 whole entry): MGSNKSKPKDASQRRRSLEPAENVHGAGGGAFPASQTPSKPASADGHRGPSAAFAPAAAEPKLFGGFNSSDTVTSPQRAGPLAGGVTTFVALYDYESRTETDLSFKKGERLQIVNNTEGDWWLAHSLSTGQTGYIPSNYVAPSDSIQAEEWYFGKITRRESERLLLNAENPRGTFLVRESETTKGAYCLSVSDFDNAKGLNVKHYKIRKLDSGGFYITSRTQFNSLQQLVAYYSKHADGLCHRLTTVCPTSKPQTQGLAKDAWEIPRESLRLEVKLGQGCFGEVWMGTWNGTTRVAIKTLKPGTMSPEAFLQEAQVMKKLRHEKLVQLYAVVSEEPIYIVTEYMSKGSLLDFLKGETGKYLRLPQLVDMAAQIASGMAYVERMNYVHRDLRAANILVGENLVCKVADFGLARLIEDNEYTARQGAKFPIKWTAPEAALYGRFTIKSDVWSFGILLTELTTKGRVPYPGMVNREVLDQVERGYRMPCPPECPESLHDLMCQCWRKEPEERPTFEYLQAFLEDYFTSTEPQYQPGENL
Sequence of Lck (P06239 whole entry): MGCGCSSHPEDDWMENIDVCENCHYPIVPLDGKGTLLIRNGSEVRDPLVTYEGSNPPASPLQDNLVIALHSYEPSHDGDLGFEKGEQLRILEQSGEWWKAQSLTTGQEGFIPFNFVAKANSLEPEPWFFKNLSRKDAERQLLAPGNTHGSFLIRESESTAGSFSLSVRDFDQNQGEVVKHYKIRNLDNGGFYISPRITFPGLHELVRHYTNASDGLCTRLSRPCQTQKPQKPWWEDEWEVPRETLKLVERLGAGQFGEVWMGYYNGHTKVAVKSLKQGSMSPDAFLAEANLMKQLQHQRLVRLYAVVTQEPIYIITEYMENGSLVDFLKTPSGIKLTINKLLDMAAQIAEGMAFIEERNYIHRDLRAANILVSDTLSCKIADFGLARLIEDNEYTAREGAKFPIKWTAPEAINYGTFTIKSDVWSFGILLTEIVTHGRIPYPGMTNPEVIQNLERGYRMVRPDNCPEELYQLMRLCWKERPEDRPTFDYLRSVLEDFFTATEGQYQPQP
Sequence of FGFR1 (P11362 whole entry): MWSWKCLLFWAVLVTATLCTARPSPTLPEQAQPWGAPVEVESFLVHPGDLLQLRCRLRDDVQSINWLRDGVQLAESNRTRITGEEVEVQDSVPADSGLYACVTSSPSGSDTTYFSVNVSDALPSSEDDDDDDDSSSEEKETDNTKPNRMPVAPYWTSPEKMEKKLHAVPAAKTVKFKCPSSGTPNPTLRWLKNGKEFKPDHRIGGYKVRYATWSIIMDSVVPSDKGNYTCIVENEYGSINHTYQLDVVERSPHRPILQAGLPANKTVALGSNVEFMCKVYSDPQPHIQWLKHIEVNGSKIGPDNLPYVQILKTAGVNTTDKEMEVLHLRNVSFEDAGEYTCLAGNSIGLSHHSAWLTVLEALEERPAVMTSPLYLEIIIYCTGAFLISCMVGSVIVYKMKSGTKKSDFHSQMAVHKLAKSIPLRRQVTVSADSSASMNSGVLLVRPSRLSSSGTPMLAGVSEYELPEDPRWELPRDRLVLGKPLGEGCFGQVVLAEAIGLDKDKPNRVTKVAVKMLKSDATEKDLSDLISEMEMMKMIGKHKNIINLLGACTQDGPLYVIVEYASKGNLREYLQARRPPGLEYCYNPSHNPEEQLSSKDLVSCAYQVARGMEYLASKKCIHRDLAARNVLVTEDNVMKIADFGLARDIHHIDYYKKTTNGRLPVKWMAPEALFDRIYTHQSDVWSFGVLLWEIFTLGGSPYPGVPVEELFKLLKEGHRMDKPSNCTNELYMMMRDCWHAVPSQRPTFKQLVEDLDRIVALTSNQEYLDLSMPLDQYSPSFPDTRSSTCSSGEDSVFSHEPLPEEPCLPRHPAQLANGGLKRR
T1 sequence (P51812 whole entry): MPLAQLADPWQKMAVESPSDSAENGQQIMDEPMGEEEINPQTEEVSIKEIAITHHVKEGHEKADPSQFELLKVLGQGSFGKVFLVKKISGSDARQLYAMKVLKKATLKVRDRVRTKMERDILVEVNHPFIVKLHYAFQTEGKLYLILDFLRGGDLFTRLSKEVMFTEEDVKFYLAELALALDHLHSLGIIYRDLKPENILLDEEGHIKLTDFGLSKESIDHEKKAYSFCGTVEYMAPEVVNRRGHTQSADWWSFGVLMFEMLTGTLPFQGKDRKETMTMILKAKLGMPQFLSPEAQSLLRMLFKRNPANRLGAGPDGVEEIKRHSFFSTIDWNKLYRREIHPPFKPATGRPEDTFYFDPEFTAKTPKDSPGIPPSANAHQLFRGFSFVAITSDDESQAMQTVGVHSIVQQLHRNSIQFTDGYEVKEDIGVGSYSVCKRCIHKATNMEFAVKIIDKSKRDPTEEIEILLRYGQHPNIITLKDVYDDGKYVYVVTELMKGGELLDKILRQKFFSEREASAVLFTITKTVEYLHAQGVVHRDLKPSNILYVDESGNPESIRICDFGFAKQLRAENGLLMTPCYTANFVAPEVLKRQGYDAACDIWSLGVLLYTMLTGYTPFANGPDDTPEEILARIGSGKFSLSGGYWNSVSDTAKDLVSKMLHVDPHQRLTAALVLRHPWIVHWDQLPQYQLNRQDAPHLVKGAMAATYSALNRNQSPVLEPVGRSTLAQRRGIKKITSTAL
T5 sequence (O96017 whole entry): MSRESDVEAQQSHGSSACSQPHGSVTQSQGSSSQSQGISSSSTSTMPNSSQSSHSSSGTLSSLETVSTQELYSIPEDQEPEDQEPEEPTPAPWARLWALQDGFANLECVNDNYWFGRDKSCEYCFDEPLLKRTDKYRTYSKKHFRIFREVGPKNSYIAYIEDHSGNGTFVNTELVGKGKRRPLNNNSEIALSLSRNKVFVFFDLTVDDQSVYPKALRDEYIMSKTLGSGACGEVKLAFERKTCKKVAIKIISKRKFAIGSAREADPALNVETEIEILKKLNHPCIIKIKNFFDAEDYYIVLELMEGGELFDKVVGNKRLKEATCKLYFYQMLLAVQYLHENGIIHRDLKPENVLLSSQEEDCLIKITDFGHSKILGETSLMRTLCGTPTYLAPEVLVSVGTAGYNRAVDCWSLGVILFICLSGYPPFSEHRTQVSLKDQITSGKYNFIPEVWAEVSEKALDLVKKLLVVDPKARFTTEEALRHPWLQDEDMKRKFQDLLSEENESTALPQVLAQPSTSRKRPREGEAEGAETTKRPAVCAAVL

Row | inhibition at 1 µM [1] | inhibition at 1 µM [2] | inhibition at 1 µM [3] | inhibition at 1 µM [4] | inhibition at 1 µM [5] | inhibition at 1 µM [6] | inhibition at 1 µM [7] | inhibition at 1 µM [8] | inhibition at 1 µM [9] | inhibition at 1 µM [10] | inhibition at 1 µM [11] | Compound
1 | 0% | -7% | -28.5% | 13% | 7.5% | 22.5% | 6.5% | 8% | 1.5% | 0% | 0.5% | CC#CC(=O)Nc1cccc2c(Oc3ncccc3-c3ccnc(N[C@H]4CCCNC4)n3)c(C)ccc12 [G-7658]
2 | 98% | 92% | 87.2% | 83.8% | 99.1% | 52.5% | 86.5% | 95% | 96.9% | 81.3% | 94.6% | O=c1cc(-c2n[nH]c3ncc(-c4c(F)cccc4F)cc23)nc(N2CCC(O)CC2)[nH]1 [G-9807]

Row | Compound | inhibition at 1 µM [1] | inhibition at 1 µM [2] | inhibition at 1 µM [3] | inhibition at 1 µM [4] | inhibition at 1 µM [5] | inhibition at 1 µM [6] | inhibition at 1 µM [7] | inhibition at 1 µM [8] | inhibition at 1 µM [9] | inhibition at 1 µM [10] | inhibition at 1 µM [11]
3 | CCOC(=O)Nc1cccc2c(Oc3ncccc3-c3ccnc(N[C@H]4CCCNC4)n3)c(C)ccc12 [G-1749] | 3.5% | -9.5% | 13.5% | 14% | 0.5% | 28% | 4% | 12% | 10% | 5% | 3.5%
